Results from patent US12202835B2, “Substituted aromatic ring-linked dioxinoquinazolines and dioxinoquinolines as kinase inhibitors” (BEIJING SCITECH-MQ PHARMACEUTICALS LIMITED, priority 2018, dated 2025).

Experiments:
Ba/F3 LMNA-NTRK1 cells = experiment: Assay for inhibiting the proliferation of Ba/F3 LMNA-NTRK1 cells (CCK-8); format: cell-based; conditions: Mus musculus, BaF3
Description: In particular, the method of the assay of small molecular compounds for inhibiting cell proliferation is as follows: • 1. Cells cultured to a logarithmic growth phase (adherent cells need to be digested with trypsin and neutralized) were taken, pipetted evenly, transferred to a 15 mL centrifuge tube, and centrifuged at 1000 rpm at room temperature for 4 minutes; • 2. The supernatant was discarded; 5 mL of complete medium was added and pipetted evenly; 10 μL of cell suspension was taken out, mixed well with 10 μL of 0.4% trypan blue, and counted under a cell counter; the proportion of living cells was ensured to be above 90%; • 3. 80 μL of cell suspension per well was seeded into a 96-well plate according to the conditions shown in the attached table, and cultured overnight; in the outer 36 wells of the 96-well plate, no cells were added but only sterile water was added; only the inner 60 wells were used for cell assay and control; • 4. […] 20 μL of the corresponding compounds with different concentration gradients were added to each well of assay wells of the 96-well plate; 20 μL of complete medium was added to positive and negative control wells and shaken well; and the final concentration of DMSO in each well was 0.25%; • 6. After 72 hours of incubation, 10 μL of CCK-8 reagent was added to each well and further incubated at 37° C. for 1-2 hours; and the OD value was read at 450 nm; • 7. Cell survival rate (%)=[(As−Ab)/(Ac−Ab)]*100% • As: Assay well (medium containing cells, CCK-8, compound), • Ac: Control well (medium containing cells, CCK-8), • Ab: Blank well (CCK-8, medium without cell and compound), • 8. The values were imported into Graphpad Prism 5 software for IC50 calculation.

Ba/F3-AXL cells = experiment: Assay for inhibiting the proliferation of Ba/F3-AXL cells (CCK-8); format: cell-based; conditions: 72 hours of incubation, medium with 100 ng/mL hGas6, CCK-8
Description: The values were then imported into Graphpad Prism 5 software for curve fitting, and IC50 was calculated.

EBC1 cells = experiment: Assay for inhibiting the proliferation of EBC1 cells (CCK-8); format: cell-based; conditions: Homo sapiens, EBC-1
Description: (§1) In particular, the method of the assay of small molecular compounds for inhibiting cell proliferation is as follows: • 1. Cells cultured to a logarithmic growth phase (adherent cells need to be digested with trypsin and neutralized) were taken, pipetted evenly, transferred to a 15 mL centrifuge tube, and centrifuged at 1000 rpm at room temperature for 4 minutes; • 2. The supernatant was discarded; 5 mL of complete medium was added and pipetted evenly; 10 μL of cell suspension was taken out, mixed well with 10 μL of 0.4% trypan blue, and counted under a cell counter; the proportion of living cells was ensured to be above 90%; • 3. 80 μL of cell suspension per well was seeded into a 96-well plate according to the conditions shown in the attached table, and cultured overnight; in the outer 36 wells of the 96-well plate, no cells were added but only sterile water was added; only the inner 60 wells were used for cell assay and control; • 4. 5×compound dilution: the compounds were serially diluted 3-fold to obtain a total of 9 concentrations; 80-fold overall dilution was completed with complete medium, the resulting concentration was 5 times the final drug concentration, and DMSO concentration was 1.25%; • 5. 20 μL of the corresponding compounds with different concentration gradients were added to each well of assay wells of the 96-well plate; 20 μL of complete medium was added to positive and negative control wells and shaken well; and the final concentration of DMSO in each well was 0.25%; • 6. After 72 hours of incubation, 10 μL of CCK-8 reagent was added to each well and further incubated at 37° C. for 1-2 hours; and the OD value was read at 450 nm; • 7. Cell survival rate (%)=[(As−Ab)/(Ac−Ab)]*100% • As: Assay well (medium containing cells, CCK-8, compound), • Ac: Control well (medium containing cells, CCK-8), • Ab: Blank well (CCK-8, medium without cell and compound), • 8. The values were imported into Graphpad Prism 5 software for IC50 calculation.

[1] = tested on: Ba/F3 LMNA-NTRK1-G595R cells; experiment: Assay for inhibiting the proliferation of Ba/F3 LMNA-NTRK1-G595R cells (CCK-8); format: cell-based; conditions: Mus musculus, BaF3
Description: as §1

MHCC97H cells = experiment: Assay for inhibiting the proliferation of MHCC97H cells (CCK-8); format: cell-based; conditions: Homo sapiens
Description: as §1

VEGFR-2 kinase = VEGFR-2 kinase (Homo sapiens (Human), UniProt P35968); experiment: Assay of small molecular compounds for inhibiting the activity of VEGFR-2 kinase (LANCE TR-FRET); format: biochemical; conditions: read-out: VEGFR2 IC50
Sequence of VEGFR-2 kinase (P35968 20-1356): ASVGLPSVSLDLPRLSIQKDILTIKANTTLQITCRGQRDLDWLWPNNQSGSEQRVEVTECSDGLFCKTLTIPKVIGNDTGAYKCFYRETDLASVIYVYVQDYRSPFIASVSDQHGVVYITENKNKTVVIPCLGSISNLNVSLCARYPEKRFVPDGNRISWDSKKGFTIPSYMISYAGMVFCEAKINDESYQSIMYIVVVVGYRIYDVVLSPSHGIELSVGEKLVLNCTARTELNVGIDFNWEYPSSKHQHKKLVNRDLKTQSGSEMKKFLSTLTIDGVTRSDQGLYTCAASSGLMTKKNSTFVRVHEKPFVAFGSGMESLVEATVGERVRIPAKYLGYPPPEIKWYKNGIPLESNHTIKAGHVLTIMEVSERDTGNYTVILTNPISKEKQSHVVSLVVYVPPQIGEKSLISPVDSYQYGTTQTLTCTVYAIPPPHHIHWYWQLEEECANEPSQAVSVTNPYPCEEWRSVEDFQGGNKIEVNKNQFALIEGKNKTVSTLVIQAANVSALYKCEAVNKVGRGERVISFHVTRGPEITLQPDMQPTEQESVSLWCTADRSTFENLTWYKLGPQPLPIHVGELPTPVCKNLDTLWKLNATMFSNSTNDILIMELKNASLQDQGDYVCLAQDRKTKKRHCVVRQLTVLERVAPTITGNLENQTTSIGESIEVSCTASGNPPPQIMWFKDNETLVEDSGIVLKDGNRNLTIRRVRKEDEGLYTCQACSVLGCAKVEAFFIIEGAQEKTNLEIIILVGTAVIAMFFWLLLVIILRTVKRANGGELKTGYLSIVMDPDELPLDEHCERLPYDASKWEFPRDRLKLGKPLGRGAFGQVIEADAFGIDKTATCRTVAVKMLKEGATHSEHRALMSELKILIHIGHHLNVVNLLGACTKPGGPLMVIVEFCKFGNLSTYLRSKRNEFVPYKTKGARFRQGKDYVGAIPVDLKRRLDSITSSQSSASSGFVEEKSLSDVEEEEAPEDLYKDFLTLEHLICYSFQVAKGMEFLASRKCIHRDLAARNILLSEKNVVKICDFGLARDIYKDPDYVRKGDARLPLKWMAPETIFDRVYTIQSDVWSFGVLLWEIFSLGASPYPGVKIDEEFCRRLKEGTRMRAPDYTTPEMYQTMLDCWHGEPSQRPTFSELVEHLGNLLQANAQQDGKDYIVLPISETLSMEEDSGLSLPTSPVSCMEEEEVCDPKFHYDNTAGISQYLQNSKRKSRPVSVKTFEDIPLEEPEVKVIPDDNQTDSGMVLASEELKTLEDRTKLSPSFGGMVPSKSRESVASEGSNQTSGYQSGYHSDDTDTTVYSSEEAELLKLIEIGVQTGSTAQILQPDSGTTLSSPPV
In short: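 LANCE TR-FRET with human VEGFR-2 (2× stock 0.5 nM) preincubated 30 min with compound (final 2500 to 0.042 nM, 11-point 3-fold), then ULight-JAK-1 (Tyr1023) peptide/ATP added (4× stocks 200 nM/40 μM). Reaction 60 min room temperature, 4% DMSO; IC50 from inhibition-rate curve.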

TRKA kinase = TRKA kinase (Homo sapiens (Human), UniProt P04629); experiment: Assay of small molecular compounds for inhibiting the activity of TRKA kinase (LANCE TR-FRET); format: biochemical
Sequence of TRKA kinase (P04629 33-796): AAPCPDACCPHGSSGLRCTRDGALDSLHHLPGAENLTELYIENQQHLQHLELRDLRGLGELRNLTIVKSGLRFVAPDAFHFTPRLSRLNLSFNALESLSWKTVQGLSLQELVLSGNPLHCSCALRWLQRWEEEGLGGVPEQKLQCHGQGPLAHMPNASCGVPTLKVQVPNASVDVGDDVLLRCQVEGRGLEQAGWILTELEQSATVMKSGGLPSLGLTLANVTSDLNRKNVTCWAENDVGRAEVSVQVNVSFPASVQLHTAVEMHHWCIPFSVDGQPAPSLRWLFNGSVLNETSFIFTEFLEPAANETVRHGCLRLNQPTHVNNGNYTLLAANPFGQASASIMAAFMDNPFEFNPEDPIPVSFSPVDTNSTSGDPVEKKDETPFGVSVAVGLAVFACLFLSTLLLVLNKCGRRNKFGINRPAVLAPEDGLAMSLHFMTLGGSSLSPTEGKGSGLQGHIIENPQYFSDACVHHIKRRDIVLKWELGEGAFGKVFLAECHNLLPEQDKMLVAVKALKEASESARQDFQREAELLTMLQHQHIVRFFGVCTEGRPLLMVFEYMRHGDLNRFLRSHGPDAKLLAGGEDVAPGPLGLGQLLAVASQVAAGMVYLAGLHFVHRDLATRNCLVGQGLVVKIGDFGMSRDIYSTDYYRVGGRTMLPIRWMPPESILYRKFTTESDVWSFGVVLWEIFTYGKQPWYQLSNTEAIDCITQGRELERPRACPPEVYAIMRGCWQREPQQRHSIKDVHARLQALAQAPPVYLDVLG
In short: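 LANCE TR-FRET with ULight-TK peptide; compounds pre-incubated 5 min with TRKA (2× solution 2 nM), then substrate/ATP added (4× mix: 400 nM peptide, 40 μM ATP). Reaction 60 min at room temperature in dark, 1% DMSO final; stopped, detection developed 60 min, signal read.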

c-MET kinase = c-MET kinase (Homo sapiens (Human), UniProt P08581); experiment: Assay of small molecular compounds for inhibiting the activity of c-MET kinase (LANCE TR-FRET); format: biochemical; conditions: read-out: CMET IC50
Sequence of c-MET kinase (P08581 25-1390): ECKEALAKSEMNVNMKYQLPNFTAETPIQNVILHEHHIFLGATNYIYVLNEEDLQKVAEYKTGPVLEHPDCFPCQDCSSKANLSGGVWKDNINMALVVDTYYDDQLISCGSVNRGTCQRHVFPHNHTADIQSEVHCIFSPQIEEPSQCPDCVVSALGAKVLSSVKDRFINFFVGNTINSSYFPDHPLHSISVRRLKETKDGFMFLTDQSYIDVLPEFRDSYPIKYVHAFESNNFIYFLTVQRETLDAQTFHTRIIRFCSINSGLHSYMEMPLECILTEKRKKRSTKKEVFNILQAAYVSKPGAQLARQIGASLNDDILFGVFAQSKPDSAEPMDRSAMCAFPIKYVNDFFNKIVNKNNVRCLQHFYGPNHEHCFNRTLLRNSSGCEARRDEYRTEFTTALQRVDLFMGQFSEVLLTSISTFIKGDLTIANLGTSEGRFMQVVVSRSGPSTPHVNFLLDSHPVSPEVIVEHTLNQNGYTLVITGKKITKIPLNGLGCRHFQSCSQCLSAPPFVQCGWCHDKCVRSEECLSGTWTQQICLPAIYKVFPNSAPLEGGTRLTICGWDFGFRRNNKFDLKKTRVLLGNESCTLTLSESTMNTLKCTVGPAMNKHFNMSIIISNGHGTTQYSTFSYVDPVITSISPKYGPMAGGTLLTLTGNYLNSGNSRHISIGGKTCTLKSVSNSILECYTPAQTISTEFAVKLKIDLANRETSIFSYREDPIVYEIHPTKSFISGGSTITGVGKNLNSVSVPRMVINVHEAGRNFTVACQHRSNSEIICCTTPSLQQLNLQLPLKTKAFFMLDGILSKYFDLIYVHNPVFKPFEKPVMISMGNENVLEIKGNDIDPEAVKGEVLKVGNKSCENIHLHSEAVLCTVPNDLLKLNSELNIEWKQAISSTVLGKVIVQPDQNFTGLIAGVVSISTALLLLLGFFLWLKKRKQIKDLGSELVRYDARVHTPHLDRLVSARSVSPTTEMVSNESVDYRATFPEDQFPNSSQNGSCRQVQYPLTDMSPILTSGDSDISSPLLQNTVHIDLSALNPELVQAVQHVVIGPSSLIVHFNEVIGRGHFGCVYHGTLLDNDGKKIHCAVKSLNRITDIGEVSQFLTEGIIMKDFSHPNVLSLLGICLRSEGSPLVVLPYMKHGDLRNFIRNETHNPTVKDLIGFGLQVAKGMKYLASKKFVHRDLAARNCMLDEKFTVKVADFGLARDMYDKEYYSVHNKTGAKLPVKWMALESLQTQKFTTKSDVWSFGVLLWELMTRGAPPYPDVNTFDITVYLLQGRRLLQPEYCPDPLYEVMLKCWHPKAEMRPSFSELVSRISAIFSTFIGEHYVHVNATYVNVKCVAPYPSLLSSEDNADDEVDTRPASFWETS
In short: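 LANCE TR-FRET assay with c-MET at 1 nM final after a 5 min room-temperature preincubation with compound (11-point, 3-fold series, 2500–0.042 nM final, 4% DMSO). ULight-JAK-1 (Tyr1023) peptide (100 nM final) and ATP (10 μM final) reacted 60 min in the dark. Inhibition was taken relative to controls, then IC50 fitted.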

| SMILES | IC50 (Ba/F3 LMNA-NTRK1 cells) [nM] | IC50 (Ba/F3-AXL cells) [nM] | IC50 (EBC1 cells) [nM] | IC50 [1] [nM] | IC50 (MHCC97H cells) [nM] | IC50 (VEGFR-2 kinase) [nM] | IC50 (TRKA kinase) [nM] | IC50 (c-MET kinase) [nM] |
| --- | --- | --- | --- | --- | --- | --- | --- | --- |
| CN(C)CCCOc1cc2nccc(Oc3ccc(NC(=O)c4cn(C)c(=O)n(-c5ccc(F)cc5)c4=O)cc3F)c2c2c1OCCO2 [Example 86, N-(3-fluoro-4-((5-((3-dimethylamino)propoxy)-2,3-dihydro-[1,4]dioxino[2,3-f]quinolin-10-yl)oxy)phenyl)-3-(4-fluorophenyl)-1-methyl-2,4-dioxo-1,2,3,4-tetrahydropyrimidine-5-carboxamide] | < 50 | < 50 | ≤ 50 | 50 to 200 | 50 to 200 | 50 to 500 | – | – |
| CCn1cc(C(=O)Nc2ccc(Oc3ccnc4cc(OC)c5c(c34)OCCO5)cc2F)c(=O)n(-c2ccc(F)cc2)c1=O [Example 154, N-(2-fluoro-4-((5-methoxy-2,3-dihydro-[1,4]dioxino[2,3-f]quinolin-10-yl)oxy)phenyl)-3-(4-fluorophenyl)-1-ethyl-2,4-dioxo-1,2,3,4-tetrahydropyrimidine-5-carboxamide] | < 50 | – | – | 50 to 200 | – | – | < 50 | ≤ 50 |
| CCn1cc(C(=O)Nc2ccc(Oc3ccnc4ccc5c(c34)OCCO5)cc2)c(=O)n(-c2ccc(F)cc2)c1=O [Example 159, N-(4-((2,3-dihydro-[1,4]dioxino[2,3-f]quinolin-10-yl)oxy)phenyl)-3-(4-fluorophenyl)-1-ethyl-2,4-dioxo-1,2,3,4-tetrahydropyrimidine-5-carboxamide] | 200 to 1000 | – | – | > 1000 | – | – | 50 to 500 | – |
| Cc1cc(Oc2ccnc3ccc4c(c23)OCCO4)c(F)cc1NC(=O)c1cn(C)c(=O)n(-c2ccc(F)cc2)c1=O [Example 175, N-(4-((2,3-dihydro-[1,4]dioxino[2,3-f]quinolin-10-yl)oxy)-5-fluoro-2-methylphenyl)-3-(4-fluorophenyl)-1-methyl-2,4-dioxo-1,2,3,4-tetrahydropyrimidine-5-carboxamide] | < 50 | – | – | 50 to 200 | – | – | < 50 | – |
| CCn1cc(C(=O)Nc2cc(F)c(Oc3ccnc4cc(OC)c5c(c34)OCCO5)cc2C)c(=O)n(-c2ccc(F)cc2)c1=O [Example 178, N-(5-fluoro-4-((5-methoxy-2,3-dihydro-[1,4]dioxino[2,3-f]quinolin-10-yl)oxy)-2-methylphenyl)-3-(4-fluorophenyl)-1-ethyl-2,4-dioxo-1,2,3,4-tetrahydropyrimidine-5-carboxamide] | < 50 | – | – | ≤ 50 | ≤ 50 | – | < 50 | ≤ 50 |
